The values that follow come from PubChem BioAssay AID754 (Emory University Molecular Libraries Screening Center, 2007).

Broadly, the IC50 is the point on the concentration scale where inhibition reaches its midpoint.

Activity calls are given as the source filed them.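 How the source made its calls: active means IC50 for lowering Her2 protein in breast cancer cells at or below a set limit; inactive means IC50 above that limit.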

For this test, the system named is SKBr3 Her2 cytoblot, chemiluminescence, 24 h. In words: Her2 protein loss in SKBr3 cells, dose response, mechanism study for Hsp90 inhibitor project, cell-based, cytoblot, chemiluminescence (AID 754).

Turning to `Nc1ccc(NS(=O)(=O)c2ccccc2)c(O)c1`, under “top dose 60 µM”, the IC50 is > 60 µM (inactive). Turning to `CCN(CC)CCCNc1cc(OC)cc2ccc(OC)nc12`, the IC50 (top dose 50 µM) was > 50 µM (inactive). For `Cc1ccc(S(=O)(=O)Nc2ccc(F)c(-c3c(O)ccc4c3OCO4)c2)cc1`, the IC50 (top dose 50 µM) is > 50 µM (inactive). For `C[C@H]1CCCC(=O)CCCCCc2cc(O)cc(O)c2C(=O)O1`, the IC50 (top dose 30 µM) was > 30 µM (inactive). As for `N#Cc1cc(S(=O)(=O)Nc2cc(O)cc3cccnc23)ccc1F`, the IC50 (top dose 60 µM) is 33.8 µM (inactive). Still for that read-out and setting: in the case of `O=S(=O)(Nc1ccc(Cl)cc1O)c1ccccc1` it was > 60 µM (inactive); in that of `COc1ccc(C2CC(c3ccccc3O)=NN2)cc1OC` (stereo not given), 52.3 µM (inactive); in that of `Nc1ccc(NS(=O)(=O)c2cccc([N+](=O)[O-])c2)cc1-c1ccccc1O`, > 60 µM (inactive).

For the molecule `O=[N+]([O-])c1cccc(S(=O)(=O)Nc2ccc(O)c(-c3ccccc3O)c2)c1`, for the setting “top dose 60 µM”, the IC50 is > 60 µM (inactive). For `COc1ccc(NS(=O)(=O)c2ccccc2)c(OC)c1`, the IC50 (top dose 60 µM) is > 60 µM (inactive). Take `COc1ccc(Oc2c(OC)cc(NCCCCCNC(C)C)c3ncccc23)cc1`: the IC50 (top dose 50 µM) is > 50 µM (inactive). As to `CC(CCN(C)C)Nc1cc(O)cc2cccnc12` (stereo not given), where the note is “top dose 10 µM”, the IC50 was > 10 µM (inactive). Take `Nc1ccc(Nc2nc3ccccc3s2)c(O)c1`: the IC50 (top dose 50 µM) is > 50 µM (inactive). On to `Nc1cccc(S(=O)(=O)Nc2ccc(O)c(-c3ccccc3O)c2)c1`, for which, under “top dose 60 µM”, the IC50 was > 60 µM (inactive). Same read-out and setting: in the case of `COc1ccc2c(c1-c1cc(NS(=O)(=O)c3cccc([N+](=O)[O-])c3)ccc1N)OCO2` it was > 60 µM (inactive). Consider `COc1cc(NC(C)CCCNC(C)C)c2ncccc2c1OC` (stereo not given), for which the IC50 (top dose 50 µM) is > 50 µM (inactive).

Take `Cc1ccc(S(=O)(=O)Nc2ccc(O)c(-c3ccccc3O)c2)cc1`: for the setting “top dose 60 µM”, the IC50 is > 60 µM (inactive).

On to `CC(C)NCCCCCNc1cc(O)cc2cccnc12`, for which the IC50 (top dose 10 µM) is > 10 µM (inactive).

For `CCN(CC)CCCNc1cc(OC)c(Nc2ccccc2)c2cccnc12`, for the setting “top dose 10 µM”, the IC50 was > 10 µM (inactive).

With `CCOc1ccc2ccccc2c1-c1cc(NS(=O)(=O)c2ccc(C)cc2)ccc1N`, where the note is “top dose 60 µM”, the IC50 was > 60 µM (inactive). The same measure, in the same setting: the figure for `COc1ccc2c(c1-c1cc(NS(=O)(=O)c3cccc(N)c3)ccc1N)OCO2` is > 60 µM (inactive).

As for `COc1ccc(S(=O)(=O)Nc2ccc(N)c(-c3ccccc3O)c2)cc1OC`, the IC50 (top dose 60 µM) is > 60 µM (inactive). As to `CCN(CC)CCCC(C)Nc1cc(O)cc2cccnc12` (stereo not given), the IC50 (top dose 10 µM) is > 10 µM (inactive). The same measure, in the same setting: in the case of `O=[N+]([O-])c1cc(O)cc2cccnc12` it was > 10 µM (inactive); in that of `Nc1cc2ccccc2c(O)c1O`, > 10 µM (inactive). `CCOc1ccc2ccccc2c1-c1cc(NS(=O)(=O)c2cc(Cl)ccc2Cl)ccc1NC(=O)OC(C)(C)C`: the IC50 (top dose 60 µM) was > 60 µM (inactive). Take `NCc1cc(S(=O)(=O)Nc2cc(O)cc3cccnc23)ccc1F`: under “top dose 60 µM”, the concentration for half-maximal inhibition (IC50) is 16.1 µM. On the same count and under the same terms, the figure for `Cc1ccc(S(=O)(=O)Nc2ccc(N)c(-c3ccccc3O)c2)cc1` is > 60 µM (inactive). With `COc1cc(NCCN(CC(C)C)CC(C)C)c2ncccc2c1`, the IC50 (top dose 50 µM) is > 50 µM (inactive). `CCC(C)NCCNc1cc(OC)cc2cccnc12` (stereo not given): under “top dose 10 µM”, the IC50 is > 10 µM (inactive).

As for `CCN(CC)CC(O)c1ccnc2c(O)cccc12` (stereo not given), the IC50 (top dose 50 µM) is > 50 µM (inactive). Same read-out and setting: in the case of `COc1cc(N)c2ncccc2c1` it was > 50 µM (inactive). Take `COc1cccc2c1C(=O)c1c(O)c3c(c(O)c1C2=O)C[C@@](O)(C(C)=O)C[C@@H]3O[C@H]1C[C@H](N)[C@H](O)[C@H](C)O1`: the concentration for half-maximal inhibition (IC50) (top dose 30 µM) is 29.3 µM. Turning to `COc1cc(NCCCN(CC(C)C)CC(C)C)c2ncccc2c1Cl`, the IC50 (top dose 50 µM) is > 50 µM (inactive). `COc1cc(C2CC(c3ccccc3O)=NN2)ccc1O` (stereo not given): the IC50 (top dose 60 µM) was 51 µM (inactive). As to `N#Cc1cc(S(=O)(=O)Nc2ccc(F)c(-c3c(O)ccc4c3OCO4)c2)ccc1F`, where the note is “top dose 50 µM”, the IC50 was > 50 µM (inactive).

For the molecule `O=[N+]([O-])c1ccc(NS(=O)(=O)c2ccccc2)c(O)c1`, where the note is “top dose 60 µM”, the IC50 is > 60 µM (inactive). Take `Cc1c(-c2nn(C)c(=O)c3ccccc23)oc2ccc(F)cc2c1=O`: the IC50 (top dose 30 µM) is > 30 µM (inactive). On to `COc1cc(NC(C)CCCN)c2ncccc2c1` (stereo not given), for which the IC50 (top dose 50 µM) was > 50 µM (inactive). Take `Nc1ccc(NS(=O)(=O)c2ccccc2[N+](=O)[O-])cc1-c1ccccc1O`: the IC50 (top dose 60 µM) is > 60 µM (inactive).

Turning to `CCn1nc(-c2ccccc2)nc2c(=O)n(C)c(=O)nc1-2`, the IC50 (top dose 30 µM) is 2.73 µM.

Turning to `COc1cc(NCCCC(C)N)c2nccc(Cl)c2c1` (stereo not given), the IC50 (top dose 50 µM) is > 50 µM (inactive). Still for that read-out and setting: in the case of `COc1cc(NCCCCN)c2ncccc2c1` it was > 50 µM (inactive).

Take `Nc1cccc2cc(O)ccc12`: the IC50 (top dose 50 µM) is > 50 µM (inactive). For `C[C@H]1CCC[C@H](O)CCCCCc2cc(O)cc(O)c2C(=O)O1`, the half-inhibitory concentration (IC50) (top dose 30 µM) is 27.9 µM.

On to `Nc1ccc(NS(=O)(=O)c2cc(Cl)ccc2Cl)cc1-c1ccccc1O`, for which the IC50 (top dose 60 µM) is > 60 µM (inactive). Same read-out and setting: the figure for `CC(C)(C)OC(=O)Nc1cccc(NS(=O)(=O)c2cc(Cl)ccc2Cl)c1-c1ccccc1O` is 48.2 µM (inactive).

As to `N#Cc1c(N2CCCC2)nc(N)c2c(N)nc(N3CCCC3)cc12`, where the note is “top dose 30 µM”, the IC50 is > 30 µM (inactive). In the case of `Cc1[nH]c2c(N)cccc2c1C`, the IC50 (top dose 50 µM) was > 50 µM (inactive). For `Nc1cccc(S(=O)(=O)Nc2ccc(N)c(-c3ccccc3O)c2)c1`, under “top dose 60 µM”, the IC50 is > 60 µM (inactive). The same measure, in the same setting: in the case of `CCOc1ccc2ccccc2c1-c1cc(NS(=O)(=O)c2cc(Cl)ccc2Cl)ccc1N` it was > 60 µM (inactive). On to `COc1ccc2c(c1-c1cc(NS(=O)(=O)c3ccc(C)cc3)ccc1N)OCO2`, for which the IC50 (top dose 60 µM) is > 60 µM (inactive). Turning to `CC(C)NCCCC(C)Nc1cc(O)cc2cccnc12` (stereo not given), the IC50 (top dose 10 µM) is > 10 µM (inactive). Consider `Cn1ncnc2c(=O)n(C)c(=O)nc1-2`, for which, where the note is “top dose 30 µM”, the 50% inhibitory concentration (IC50) is below 1.88 µM.

With `COc1ccc(S(=O)(=O)Nc2ccc(O)c(-c3ccccc3O)c2)cc1OC`, under “top dose 60 µM”, the IC50 is > 60 µM (inactive). For the molecule `NCCCCCNc1cc(O)cc2cccnc12`, for the setting “top dose 10 µM”, the IC50 is > 10 µM (inactive). The same measure, in the same setting: in the case of `Nc1cc(O)cc2cccnc12` it was below 0.625 µM. As to `CCCC(C)N(CC)CCNc1cc(OC)cc2cccnc12` (stereo not given), the IC50 (top dose 50 µM) was > 50 µM (inactive).

As for `CCc1cc(-c2[nH]ncc2-c2ccc3c(c2)OCO3)c(O)cc1O`, the IC50 (top dose 30 µM) was > 30 µM (inactive). `COc1cc(NCC(O)CN(CC(C)C)CC(C)C)c2nc(C)ccc2c1` (stereo not given): where the note is “top dose 50 µM”, the IC50 is > 50 µM (inactive). On to `O=[N+]([O-])c1cc(S(=O)(=O)Nc2ccc(F)c(-c3c(O)ccc4c3OCO4)c2)ccc1Cl`, for which the IC50 (top dose 50 µM) was > 50 µM (inactive). As to `CCn1c(CSc2nnc3ccccn23)nc2cc(C(=O)O)ccc21`, the IC50 (top dose 30 µM) was > 30 µM (inactive).

Regarding `Nc1ccc(O)c2ncccc12`, the IC50 is > 10 µM (inactive) (top dose 10 µM) and > 50 µM (inactive) (top dose 50 µM). For `CCn1nc(-c2cccs2)nc2c(=O)n(C)c(=O)nc1-2`, for the setting “top dose 30 µM”, the IC50 was below 1.88 µM. Take `COc1cc(NC(C)CCCNC(C)C)c2ncccc2c1` (stereo not given): the IC50 (top dose 50 µM) was > 50 µM (inactive). Turning to `COc1ccc2c(c1-c1cc(NS(=O)(=O)c3cc(Cl)ccc3Cl)ccc1N)OCO2`, the IC50 (top dose 60 µM) was > 60 µM (inactive).

For `O=C1c2ccccc2-c2onc3ccc(NCCCn4ccnc4)c1c23`, the IC50 (top dose 30 µM) was > 30 µM (inactive). `Nc1cc(N)c2cccnc2c1O`: the IC50 (top dose 10 µM) is > 10 µM (inactive). Take `CCOc1ccc2ccccc2c1-c1cc(NS(=O)(=O)c2ccc(OC)c(OC)c2)ccc1N`: the IC50 (top dose 60 µM) is > 60 µM (inactive). Regarding `O=S(=O)(Nc1ccc(O)c(-c2ccccc2O)c1)c1cc(Cl)ccc1Cl`, the IC50 (top dose 60 µM) was > 60 µM (inactive).

In the case of `O=S(=O)(Nc1cc(O)cc2cccnc12)c1ccc(F)cc1`, the IC50 (top dose 60 µM) was > 60 µM (inactive).

Take `COc1cccc2c1C(=O)c1c(O)c3c(c(O)c1C2=O)C[C@@](O)(C(=O)CO)C[C@@H]3O[C@H]1C[C@H](N)[C@H](O)[C@H](C)O1`: the IC50 (top dose 30 µM) was > 30 µM (inactive). On to `COc1cc(NS(=O)(=O)c2ccc([N+](=O)[O-])cc2[N+](=O)[O-])c2ncccc2c1`, for which the IC50 (top dose 50 µM) was > 50 µM (inactive).

Consider `Oc1ccc(-c2nc(-c3ccc(O)c(O)c3)cs2)cc1`, for which the IC50 (top dose 30 µM) was > 30 µM (inactive). Regarding `Nc1ccc(NS(=O)(=O)c2ccccc2N)cc1-c1ccccc1O`, the IC50 (top dose 60 µM) is > 60 µM (inactive).

With `CCC(CC)NCCCNc1cc(OC)cc2cccnc12`, the IC50 (top dose 50 µM) is > 50 µM (inactive).

In the case of `CCn1c(CSc2nnc(-c3cccnc3)n2-c2ccccc2C)nc2cc(C(=O)O)ccc21`, for the setting “top dose 30 µM”, the concentration for half-maximal inhibition (IC50) was 3.14 µM.

In the case of `CC(Cc1ccc(O)c(O)c1)C(C)Cc1ccc(O)c(O)c1` (stereo not given), the IC50 (top dose 30 µM) was > 30 µM (inactive).

Consider `Nc1cc2c(c(O)c1O)C(=O)c1ccccc1C2=O`, for which the IC50 (top dose 10 µM) is > 10 µM (inactive).
